pIC50: −log10 of the molar value.
Assays:
MOLM-13 cells = assay: MOLM-13 cellular assay (CellTiter-Glo cell viability); type: cell-based; conditions: 72 hours exposure, cell viability by CellTiter-Glo
Description: In Vitro Assay: MOLM-13 Cellular Assay
MOLM-13 cells were obtained from DSMZ and were maintained in RPMI 1640+Glutamax+25 mM HEPES (Invitrogen, catalog number 72400) supplemented with 10% heat inactivated fetal bovine serum (FBS; Invitrogen, catalog number 16140). The day prior to assay set-up, cells were pelleted, resuspended in fresh media, counted, and cells were plated at 0.4×10^6 cell/mL in a T150 flask. On the day of the assay, cells were pelleted, resuspend in fresh media, counted and seeded at 5,000 cells/well in white opaque 96-well tissue culture treated microplates (Perkin Elmer, catalog number 6005680). Cells were exposed to different concentrations of test compounds at 37° C., 5% CO2 for 72 hours immediately after seeding. Cell viability was acquired on a Perkin Elmer Envision 2104 multilabel reader using the CellTiter-Glo assay (Promega) according to the manufacturer's instructions.

human DHODH = target: T1, human DHODH (Homo sapiens, UniProt Q02127); assay: DHODH enzymatic assay (DCIP absorbance, end-point); type: biochemical; conditions: purified human DHODH, DCIP as final electron acceptor, end-point mode; read-out: hDHODH IC50
T1 construct: purchased Proteros PR-0044
T1 sequence (Q02127 whole entry): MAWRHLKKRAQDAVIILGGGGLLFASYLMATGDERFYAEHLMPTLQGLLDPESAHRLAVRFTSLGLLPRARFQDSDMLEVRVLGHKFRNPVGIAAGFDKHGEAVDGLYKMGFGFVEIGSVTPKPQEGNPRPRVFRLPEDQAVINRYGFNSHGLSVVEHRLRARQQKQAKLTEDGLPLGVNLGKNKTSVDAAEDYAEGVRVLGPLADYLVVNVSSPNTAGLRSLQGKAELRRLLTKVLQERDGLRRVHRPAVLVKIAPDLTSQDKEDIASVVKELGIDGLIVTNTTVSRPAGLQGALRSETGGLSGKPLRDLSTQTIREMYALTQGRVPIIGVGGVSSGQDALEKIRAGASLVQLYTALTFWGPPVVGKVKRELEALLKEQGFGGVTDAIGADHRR
Description: In vitro Assay: DHODH enzymatic assay
To detect DHODH enzyme activities, dichloroindophenol (DCIP) is added as the final electron acceptor in the assay. DCIP can accept electrons from the reduced coenzyme Q generated in the assay, or from dihydroorotate (DHO) via FMN by binding presumably to the ubiquinone pocket. […] The assay buffer contained […], pH 7.5, 150 mM NaCl, 0.5 mM EDTA, and 0.1% Triton X-100 in MilliQ water. Substrate consisting of 20 mM DHO, 5 mM CoQ6, and 1 mM DCIP in assay buffer, initiates the reaction. […] Absorbance measurements were obtained using the BMG Phera Star plate-reading spectrophotometer. Purified human DHODH was purchased from Proteros (cat. No. PR-0044). Chemicals were purchased from Sigma-Aldrich, Teknova, and Avanti Polar Lipids. Liquid handling was performed using Labcyte Echo and Formulatrix Tempest.

Row | pIC50 (MOLM-13 cells; Homo sapiens, MOLM-13, 72 h) | pIC50 (human DHODH) | pIC50 (MOLM-13 cells) | SMILES
1 | 8.59 | 8.52 | – | CCn1c(CO)nn(-c2cc3c(cc2F)C(=O)N(c2c(F)cccc2Cl)CN3C2CCC2)c1=O [Example 19, 3-(2-Chloro-6-fluorophenyl)-1-cyclobutyl-7-(4-ethyl-3-(hydroxymethyl)-5-oxo-4,5-dihydro-1H-1,2,4-triazol-1-yl)-6-fluoro-2,3-dihydroquinazolin-4(1H)-one]
2 | 8.22 | 8.05 | – | CCn1c(CO)nn(-c2cc3c(cc2F)C(=O)N(c2c(C)cnc(OC)c2Cl)CN3C(C)C)c1=O [Example 32, 3-(3-Chloro-2-methoxy-5-methylpyridin-4-yl)-7-(4-ethyl-3-(hydroxymethyl)-5-oxo-4,5-dihydro-1H-1,2,4-triazol-1-yl)-6-fluoro-1-isopropyl-2,3-dihydroquinazolin-4(1H)-one]
3 | > 8.77 | 9.52 | – | CCC[C@H](C)N1CN(c2c(F)cccc2Cl)C(=O)c2cc(F)c(-n3nc(CO)n(CC)c3=O)cc21 [Example 15, (S)-3-(2-Chloro-6-fluorophenyl)-7-(4-ethyl-3-(hydroxymethyl)-5-oxo-4,5-dihydro-1H-1,2,4-triazol-1-yl)-6-fluoro-1-(pentan-2-yl)-2,3-dihydroquinazolin-4(1H)-one]
4 | 8.47 | 8.52 | – | CCn1c(CO)nn(-c2cc3c(cc2F)C(=O)N(c2nc(OC)ccc2Cl)CN3C(C)C)c1=O [Example 30, 3-(3-Chloro-6-methoxypyridin-2-yl)-7-(4-ethyl-3-(hydroxymethyl)-5-oxo-4,5-dihydro-1H-1,2,4-triazol-1-yl)-6-fluoro-1-isopropyl-2,3-dihydroquinazolin-4(1H)-one]
5 | – | 8.70 | 9.10 | C=C(C)[C@@H]1CN(c2c(C)cnc(OC)c2Cl)C(=O)c2cc(F)c(-n3nc(CO)n(CC)c3=O)cc21 (single isomer, unassigned; atropisomer 1) [Example 62, Atropisomer 1, (S*)-2-(3-Chloro-2-methoxy-5-methylpyridin-4-yl)-6-(4-ethyl-3-(hydroxymethyl)-5-oxo-4,5-dihydro-1H-1,2,4-triazol-1-yl)-7-fluoro-4-(prop-1-en-2-yl)-3,4-dihydroisoquinolin-1(2H)-one]
6 | 8.37 | 8.40 | – | CC[C@H](C)[C@H]1CN(c2c(F)cccc2Cl)C(=O)c2cc(F)c(-n3nc(CO)n(CC)c3=O)cc21 (relative stereo) [Example 71, (R*)-4-((S *)-sec-B utyl)-2-(2-chloro-6-fluorophenyl)-6-(4-ethyl-3-(hydroxymethyl)-5-oxo-4,5-dihydro-1H-1,2,4-triazol-1-yl)-7-fluoro-3,4-dihydroisoquinolin-1(2H)-one]
7 | 8.77 | > 9.30 | – | CCn1c(CO)nn(-c2nc3c(cc2F)C(=O)N(c2c(F)cccc2Cl)CN3[C@@H](C)C(F)(F)F)c1=O [Example 8, (S)-3-(2-Chloro-6-fluorophenyl)-7-(4-ethyl-3-(hydroxymethyl)-5-oxo-4,5-dihydro-1H-1,2,4-triazol-1-yl)-6-fluoro-1-(1,1,1-trifluoropropan-2-yl)-2,3-dihydropyrido[2,3-d]pyrimidin-4(1H)-one]
8 | 8.36 | 6.96 | – | CCn1c(CO)nn(-c2cc3c(cc2F)c(=O)n(-c2c(F)cccc2Cl)c(=O)n3C(C)C)c1=O [Example 4, 3-(2-Chloro-6-fluorophenyl)-7-(4-ethyl-3-(hydroxymethyl)-5-oxo-4,5-dihydro-1H-1,2,4-triazol-1-yl)-6-fluoro-1-isopropylquinazoline-2,4(1H,3H)-dione]
9 | 7.20 | < 7.00 | – | C=C(C)C1CN(c2c(Cl)ccnc2C)C(=O)c2cc(F)c(-n3nc(CO)n(CC)c3=O)cc21 (racemic) [Example 25, Racemic-2-(4-Chloro-2-methylpyridin-3-yl)-6-(4-ethyl-3-(hydroxymethyl)-5-oxo-4,5-dihydro-1H-1,2,4-triazol-1-yl)-7-fluoro-4-(prop-1-en-2-yl)-3,4-dihydroisoquinolin-1(2H)-one]
10 | 8.40 | 8.70 | – | CCn1c(CO)nn(-c2cc3c(cc2F)C(=O)N(c2c(F)cccc2Cl)CN3CC(C)C)c1=O [Example 18, 3-(2-Chloro-6-fluorophenyl)-7-(4-ethyl-3-(hydroxymethyl)-5-oxo-4,5-dihydro-1H-1,2,4-triazol-1-yl)-6-fluoro-1-isobutyl-2,3-dihydroquinazolin-4(1H)-one]
11 | – | 7.70 | 8.66 | C=C(C)[C@@H]1CN(c2c(C)cnc(OC)c2C)C(=O)c2cc(F)c(-n3nc(CO)n(CC)c3=O)cc21 (single isomer, unassigned; atropisomer 1) [Example 54, Atropisomer 1, (S*)-6-(4-Ethyl-3-(hydroxymethyl)-5-oxo-4,5-dihydro-1H-1,2,4-triazol-1-yl)-7-fluoro-2-(2-methoxy-3,5-dimethylpyridin-4-yl)-4-(prop-1-en-2-yl)-3,4-dihydroisoquinolin-1 (2H)-one]
12 | 8.92 | 8.85 | – | CCn1c(CO)nn(-c2nc3c(cc2F)C(=O)N(c2c(F)cccc2Cl)CN3C(C)C)c1=O [Example 5, 3-(2-Chloro-6-fluorophenyl)-7-(4-ethyl-3-(hydroxymethyl)-5-oxo-4,5-dihydro-1H-1,2,4-triazol-1-yl)-6-fluoro-1-isopropyl-2,3-dihydropyrido[2,3-d]pyrimidin-4(1H)-one]
13 | 7.84 | 8.22 | – | CCC(C)C1CN(c2c(F)cccc2Cl)C(=O)c2cc(F)c(-n3nc(CO)n(CC)c3=O)cc21 (single isomer, unassigned) [Example 70, (S*)-4-((RS)-sec-butyl)-2-(2-chloro-6-fluorophenyl)-6-(4-ethyl-3-(hydroxymethyl)-5-oxo-4,5-dihydro-1H-1,2,4-triazol-1-yl)-7-fluoro-3,4-dihydroisoquinolin-1(2H)-one]
14 | – | < 7.00 | 7.57 | C=C(C)[C@@H]1CN(c2c(C)cc(C)nc2Cl)C(=O)c2cc(F)c(-n3nc(CO)n(CC)c3=O)cc21 (single isomer, unassigned; atropisomer 1) [Example 60, Atropisomer 1, (S*)-2-(2-Chloro-4,6-dimethylpyridin-3-yl)-6-(4-ethyl-3-(hydroxymethyl)-5-oxo-4,5-dihydro-1H-1,2,4-triazol-1-yl)-7-fluoro-4-(prop-1-en-2-yl)-3,4-dihydroisoquinolin-1(2H)-one]
15 | – | 7.70 | 9.08 | C=C(C)C1CN(c2c(C)n[nH]c2Cl)C(=O)c2cc(F)c(-n3nc(CO)n(CC)c3=O)cc21 (single isomer, unassigned) [Example 48, (S*)-2-(5-Chloro-3-methyl-1H-pyrazol-4-yl)-6-(4-ethyl-3-(hydroxymethyl)-5-oxo-4,5-dihydro-1H-1,2,4-triazol-1-yl)-7-fluoro-4-(prop-1-en-2-yl)-3,4-dihydroisoquinolin-1(2H)-one]
16 | – | 8.40 | 8.53 | C=C(C)[C@@H]1CN(c2c(C)cc(C)nc2Cl)C(=O)c2cc(F)c(-n3nc(CO)n(CC)c3=O)cc21 (single isomer, unassigned; atropisomer 1) [Example 58, Atropisomer 1, (S*)-2-(2-Chloro-4,6-dimethylpyridin-3-yl)-6-(4-ethyl-3-(hydroxymethyl)-5-oxo-4,5-dihydro-1H-1,2,4-triazol-1-yl)-7-fluoro-4-(prop-1-en-2-yl)-3,4-dihydroisoquinolin-1(2H)-one]
17 | 7.64 | 8.22 | – | CCn1c(CO)nn(-c2cc3c(cc2F)C(=O)N(c2c(F)cccc2Cl)CN3CC2CCCCC2)c1=O [Example 21, 3-(2-Chloro-6-fluorophenyl)-1-(cyclohexylmethyl)-7-(4-ethyl-3-(hydroxymethyl)-5-oxo-4,5-dihydro-1H-1,2,4-triazol-1-yl)-6-fluoro-2,3-dihydroquinazolin-4(1H)-one]
18 | 7.44 | 7.52 | – | C=C(C)C1CN(c2cc(C)ccc2F)C(=O)c2cc(F)c(-n3nc(CO)n(CC)c3=O)cc21 (racemic) [Example 38, Racemic-6-(4-ethyl-3-(hydroxymethyl)-5-oxo-4,5-dihydro-1H-1,2,4-triazol-1-yl)-7-fluoro-2-(2-fluoro-5-methylphenyl)-4-(prop-1-en-2-yl)-3,4-dihydroisoquinolin-1(2H)-one]
19 | 6.12 | 5.99 | – | CCn1c(CO)nn(-c2ccc3c(c2)C(c2ccccc2)CN(c2cccc(F)c2)C3=O)c1=O (racemic) [Example 14, Racemic-6-(4-Ethyl-3-(hydroxymethyl)-5-oxo-4,5-dihydro-1H-1,2,4-triazol-1-yl)-2-(3-fluorophenyl)-4-phenyl-3,4-dihydroisoquinolin-1(2H)-one]

Reference: US20220081422A1 (Janssen Biotech, Inc., priority 2019, published 2022)
